# Test results published in patent US20220409619A1, “INHIBITORS OF HUMAN IMMUNODEFICIENCY VIRUS REPLICATION” (VIIV HEALTHCARE UK (No. 5) LIMITED, priority 2019, published 2022).
# Columns and labels:
# [1] = Compound cytotoxicity, XTT-based colorimetric assay; format: cell-based; details: human; uninfected MT2 cells, day 4, XTT-based colorimetric assay
# Procedure: Compound cytotoxicity and the corresponding CC50 values were determined using the same protocol as described in the antiviral assay except that uninfected cells were used. Cytotoxicity was assessed on day 4 in uninfected MT2 cells by using a XTT (2,3-bis[2-Methoxy-4-nitro-5-sulfophenyl]-2H-tetrazolium-5-carboxyanilide inner salt)-based colorimetric assay (Sigma-Aldrich, St Louis, Mo.).
# [2] = test system: recombinant NL4-3 virus (nef section replaced with Renilla luciferase gene) in MT-2 cells; assay: HIV cell culture assay (antiviral activity, luciferase readout); format: cell-based; details: Renilla, NL43
# Procedure: HIV cell culture assay—MT-2 cells, 293T cells and the proviral DNA clone of NL4-3 virus were obtained from the NIH AIDS Research and Reference Reagent Program. MT-2 cells were propagated in RPMI 1640 media supplemented with 10% heat inactivated fetal bovine serum (FBS), 100 μg/ml penicillin G and up to 100 units/mL streptomycin. The 293T cells were propagated in DMEM media supplemented with 10% heat inactivated FBS, 100 μg/mL penicillin G and 100 μg/mL streptomycin. A recombinant NL4-3 proviral clone, in which a section of the nef gene was replaced with the Renilla luciferase gene, was used to make the reference virus used in these studies. The recombinant virus was prepared through transfection of the recombinant NL4-3 proviral clone into 293T cells using Transit-293 Transfection Reagent from Mirus Bio LLC (Madison, Wis.). Supernatent was harvested after 2-3 days and the amount of virus present was titered in MT-2 cells using luciferase enzyme activity as a marker by measuring luciferase enzyme activity. Luciferase was quantitated using the EnduRen Live Cell Substrate from Promega (Madison, Wis.). Antiviral activities of compounds toward the recombinant virus were quantified by measuring luciferase activity in MT-2 cells infected for 4-5 days with the recombinant virus in the presence of serial dilutions of the compound.
# The 50% effective concentration (EC50) was calculated by using the exponential form of the median effect equation where (Fa)=1/[1+(ED50/drug conc.)^m] (Johnson V A, Byington R T. Infectivity Assay. In Techniques in HIV Research. ed. Aldovini A, Walker B D. 71-76. New York: Stockton Press. 1990). Curve fitting and analysis were performed with ActivityBase XE Runner software version 9.1.0.4 using model 203 (ID Business Solutions, LTD, Guildford, UK).
Compound,CC50 at 4 days [1] [nM],EC50 [2] [nM]
"Cn1nc(NS(C)(=O)=O)c2c(Cl)ccc(-n3c([C@H](Cc4cc(F)cc(F)c4)NC(=O)Cn4nc(C(F)F)c5c4C(F)(F)[C@@H]4C[C@H]54)nc(-c4cnc(C(C)(C)O)s4)cc3=O)c21 (atropisomer, axis not shown; (P)) [Example 25, N-((S)-1-((1P)-1-(4-chloro-1-methyl-3-(methylsulfonamido)-1H-indazol-7-yl)-4-(2-(2-hydroxypropan-2-yl)thiazol-5-yl)-6-oxo-1,6-dihydropyrimidin-2-yl)-2-(3,5-difluorophenyl)ethyl)-2-((3bS,4aR)-3-(difluoromethyl)-5,5-difluoro-3b,4,4a,5-tetrahydro-1H-cyclopropa[3,4]cyclopenta[1,2-c]pyrazol-1-yl)acetamide]",> 100,1.5
"Cc1ccnc(-c2cc(=O)n(-c3ccc(Cl)c4c(NS(C)(=O)=O)nn(C)c34)c([C@H](Cc3cc(F)cc(F)c3)NC(=O)Cn3nc(C(F)F)c4c3C(F)(F)[C@@H]3C[C@H]43)n2)c1 (atropisomer, axis not shown; (P)) [Example 16, N-((S)-1-((1P)-1-(4-chloro-1-methyl-3-(methylsulfonamido)-1H-indazol-7-yl)-4-(4-methylpyridin-2-yl)-6-oxo-1,6-dihydropyrimidin-2-yl)-2-(3,5-difluorophenyl)ethyl)-2-((3bS,4aR)-3-(difluoromethyl)-5,5-difluoro-3b,4,4a,5-tetrahydro-1H-cyclopropa[3,4]cyclopenta[1,2-c]pyrazol-1-yl)acetamide]",> 100,0.31
"Cn1nc(NS(C)(=O)=O)c2c(Cl)ccc(-n3c([C@H](Cc4cc(F)cc(F)c4)NC(=O)Cn4nc(C(F)F)c5c4C(F)(F)[C@@H]4C[C@H]54)nc(-c4ccccc4)cc3=O)c21 (atropisomer, axis not shown; (aR)) [Example 1, N-((S)-1-(1-(4-chloro-1-methyl-3-(methylsulfonamido)-1H-indazol-7-yl)-6-oxo-4-phenyl-1,6-dihydropyrimidin-2-yl)-2-(3,5-difluorophenyl)ethyl)-2-((3bS,4aR)-3-(difluoromethyl)-5,5-difluoro-3b,4,4a,5-tetrahydro-1H-cyclopropa[3,4]cyclopenta[1,2-c]pyrazol-1-yl)acetamide]",> 500,0.72
"CCc1cnc(-c2cc(=O)n(-c3ccc(Cl)c4c(NS(C)(=O)=O)nn(C)c34)c([C@H](Cc3cc(F)cc(F)c3)NC(=O)Cn3nc(C(F)F)c4c3C(F)(F)[C@@H]3C[C@H]43)n2)nc1 (atropisomer, axis not shown; (aR)) [Example 12, N-((S)-1-((1′P)-1′-(4-chloro-1-methyl-3-(methylsulfonamido)-1H-indazol-7-yl)-5-ethyl-6′-oxo-1′,6′-dihydro-[2,4′-bipyrimidin]-2′-yl)-2-(3,5-difluorophenyl)ethyl)-2-((3bS,4aR)-3-(difluoromethyl)-5,5-difluoro-3b,4,4a,5-tetrahydro-1H-cyclopropa[3,4]cyclopenta[1,2-c]pyrazol-1-yl)acetamide]",> 100,0.019
"O=C(Cn1nc(C(F)F)c2c1C(F)(F)[C@@H]1C[C@H]21)N[C@@H](Cc1cc(F)cc(F)c1)c1nc(-c2cnccn2)cc(=O)n1-c1ccc(Cl)c2c(NS(=O)(=O)C3CC3)nn(CC(F)F)c12 (atropisomer, axis not shown; (P)) [Example 50, N-((S)-1-((1P)-1-(4-chloro-3-(cyclopropanesulfonamido)-1-(2,2-difluoroethyl)-1H-indazol-7-yl)-6-oxo-4-(pyrazin-2-yl)-1,6-dihydropyrimidin-2-yl)-2-(3,5-difluorophenyl)ethyl)-2-((3bS,4aR)-3-(difluoromethyl)-5,5-difluoro-3b,4,4a,5-tetrahydro-1H-cyclopropa[3,4]cyclopenta[1,2-c]pyrazol-1-yl)acetamide]",> 100,0.81
"COC(C)(C)C#Cc1cc(=O)n(-c2ccc(Cl)c3c(NS(=O)(=O)C4CC4)nn(CC(F)F)c23)c([C@H](Cc2cc(F)cc(F)c2)NC(=O)Cn2nc(C(F)F)c3c2C(F)(F)[C@@H]2C[C@H]32)n1 (atropisomer, axis not shown; (P)) [Example 41, N-((S)-1-((1P)-1-(4-chloro-3-(cyclopropanesulfonamido)-1-(2,2-difluoroethyl)-1H-indazol-7-yl)-4-(3-methoxy-3-methylbut-1-yn-1-yl)-6-oxo-1,6-dihydropyrimidin-2-yl)-2-(3,5-difluorophenyl)ethyl)-2-((3bS,4aR)-3-(difluoromethyl)-5,5-difluoro-3b,4,4a,5-tetrahydro-1H-cyclopropa[3,4]cyclopenta[1,2-c]pyrazol-1-yl)acetamide]",> 100,0.064
"Cc1ccnc(-c2cc(=O)n(-c3ccc(Cl)c4c(NS(=O)(=O)C5CC5)nn(CC(F)F)c34)c([C@H](Cc3cc(F)cc(F)c3)NC(=O)Cn3nc(C(F)F)c4c3C(F)(F)[C@@H]3C[C@H]43)n2)n1 (atropisomer, axis not shown; (aR)) [Example 43, N-((S)-1-((1′P)-1′-(4-chloro-3-(cyclopropanesulfonamido)-1-(2,2-difluoroethyl)-1H-indazol-7-yl)-4-methyl-6′-oxo-1′,6′-dihydro-[2,4′-bipyrimidin]-2′-yl)-2-(3,5-difluorophenyl)ethyl)-2-((3bS,4aR)-3-(difluoromethyl)-5,5-difluoro-3b,4,4a,5-tetrahydro-1H-cyclopropa[3,4]cyclopenta[1,2-c]pyrazol-1-yl)acetamide]",> 100,0.17
"Cn1nc(NS(C)(=O)=O)c2c(Cl)ccc(-n3c([C@H](Cc4cc(F)cc(F)c4)NC(=O)Cn4nc(C(F)F)c5c4C(F)(F)[C@@H]4C[C@H]54)nc(-c4csc(C(C)(C)O)n4)cc3=O)c21 (atropisomer, axis not shown; (P)) [Example 18, N-((S)-1-((1P)-1-(4-chloro-1-methyl-3-(methylsulfonamido)-1H-indazol-7-yl)-4-(2-(2-hydroxypropan-2-yl)thiazol-4-yl)-6-oxo-1,6-dihydropyrimidin-2-yl)-2-(3,5-difluorophenyl)ethyl)-2-((3bS,4aR)-3-(difluoromethyl)-5,5-difluoro-3b,4,4a,5-tetrahydro-1H-cyclopropa[3,4]cyclopenta[1,2-c]pyrazol-1-yl)acetamide]",> 100,0.47
"CC(C)(C#Cc1cc(=O)n(-c2ccc(Cl)c3c(NS(=O)(=O)C4CC4)nn(CC(F)F)c23)c([C@H](Cc2cc(F)cc(F)c2)NC(=O)Cn2nc(C(F)(F)F)c3c2C(F)(F)[C@@H]2C[C@H]32)n1)S(C)(=O)=O (atropisomer, axis not shown; (P)) [Example 36, N-((S)-1-((1P)-1-(4-chloro-3-(cyclopropanesulfonamido)-1-(2,2-difluoroethyl)-1H-indazol-7-yl)-4-(3-methyl-3-(methylsulfonyl)but-1-yn-1-yl)-6-oxo-1,6-dihydropyrimidin-2-yl)-2-(3,5-difluorophenyl)ethyl)-2-((3bS,4aR)-5,5-difluoro-3-(trifluoromethyl)-3b,4,4a,5-tetrahydro-1H-cyclopropa[3,4]cyclopenta[1,2-c]pyrazol-1-yl)acetamide]",> 100,0.16
"Cn1nc(NS(C)(=O)=O)c2c(Cl)ccc(-n3c([C@H](Cc4cc(F)cc(F)c4)NC(=O)Cn4nc(C(F)F)c5c4C(F)(F)[C@@H]4C[C@H]54)nc(-c4ccn(CC(C)(F)F)n4)cc3=O)c21 (atropisomer, axis not shown; (P)) [Example 8, N-((S)-1-((1P)-1-(4-chloro-1-methyl-3-(methylsulfonamido)-1H-indazol-7-yl)-4-(1-(2,2-difluoropropyl)-1H-pyrazol-3-yl)-6-oxo-1,6-dihydropyrimidin-2-yl)-2-(3,5-difluorophenyl)ethyl)-2-((3bS,4aR)-3-(difluoromethyl)-5,5-difluoro-3b,4,4a,5-tetrahydro-1H-cyclopropa[3,4]cyclopenta[1,2-c]pyrazol-1-yl)acetamide]",> 100,0.28
"CCOc1ncc(-c2cc(=O)n(-c3ccc(Cl)c4c(NS(=O)(=O)C5CC5)nn(CC(F)F)c34)c([C@H](Cc3cc(F)cc(F)c3)NC(=O)Cn3nc(C(F)F)c4c3C(F)(F)[C@@H]3C[C@H]43)n2)cn1 (atropisomer, axis not shown; (P)) [Example 49, N-((S)-1-((1P)-1-(4-chloro-3-(cyclopropanesulfonamido)-1-(2,2-difluoroethyl)-1H-indazol-7-yl)-2′-ethoxy-6-oxo-1,6-dihydro-[4,5′-bipyrimidin]-2-yl)-2-(3,5-difluorophenyl)ethyl)-2-((3bS,4aR)-3-(difluoromethyl)-5,5-difluoro-3b,4,4a,5-tetrahydro-1H-cyclopropa[3,4]cyclopenta[1,2-c]pyrazol-1-yl)acetamide]",> 100,0.58
